PubChem BioAssay (NCI)
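GI50: concentration for 50% inhibition of growth. TGI: concentration producing complete growth inhibition.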

What was measured:
Test in all cases: NCI tumour cell line growth inhibition, 384-well format
[1] = tested on: MDA-MB-231 breast
[2] = tested on: HCC-2998 colon
[3] = tested on: HT29 colon
[4] = tested on: SN12C renal
[5] = tested on: MCF7 breast
[6] = tested on: MOLT-4 leukemia
[7] = tested on: CCRF-CEM leukemia
[8] = tested on: RXF 393 renal
[9] = tested on: SF-295 CNS
[10] = tested on: M14 melanoma
[11] = tested on: LOX IMVI melanoma
[12] = tested on: HS 578T breast
[13] = tested on: OVCAR-5 ovarian
[14] = tested on: 786-0 renal
[15] = tested on: TK-10 renal
[16] = tested on: KM12 colon
[17] = tested on: SW-620 colon
[18] = tested on: OVCAR-8 ovarian
[19] = tested on: UACC-257 melanoma
[20] = tested on: OVCAR-3 ovarian
[21] = tested on: HOP-62 NSCLC
[22] = tested on: NCI/ADR-RES ovarian
[23] = tested on: OVCAR-4 ovarian
[24] = tested on: SNB-19 CNS
[25] = tested on: SF-268 CNS
[26] = tested on: UACC-62 melanoma
[27] = tested on: IGROV1 ovarian
[28] = tested on: HOP-92 NSCLC
[29] = tested on: A498 renal
[30] = tested on: U251 glioblastoma
[31] = tested on: EKVX NSCLC
[32] = tested on: ACHN renal
[33] = tested on: DU-145 prostate
[34] = tested on: SF-539 CNS
[35] = tested on: NCI-H23 lung
[36] = tested on: NCI-H460 NSCLC
[37] = tested on: MDA-MB-468 breast
[38] = tested on: SK-MEL-5 melanoma
[39] = tested on: SR leukemia
[40] = tested on: NCI-H522 lung
[41] = tested on: HCT-15 colon
[42] = tested on: MALME-3M melanoma
[43] = tested on: NCI-H322M lung
[44] = tested on: HL-60(TB) leukemia
[45] = tested on: CAKI-1 renal
[46] = tested on: RPMI-8226 leukemia
[47] = tested on: SNB-75 CNS
[48] = tested on: SK-OV-3 ovarian
[49] = tested on: MDA-MB-435 melanoma
[50] = tested on: PC-3 prostate
[51] = tested on: A549 NSCLC
[52] = tested on: BT-549 breast
[53] = tested on: UO-31 renal
[54] = tested on: SK-MEL-28 melanoma
[55] = tested on: COLO 205 colon
[56] = tested on: NCI-H226 lung
[57] = tested on: HCT-116 colon
[58] = tested on: T-47D breast
[59] = tested on: SK-MEL-2 melanoma

## CC#CC(=O)N1CCC[C@H]1c1nc(-c2ccc(C(=O)Nc3ccccn3)cc2)c2c(N)nccn12
[1]
  GI50: 38.3 µM
  TGI: > 100 µM
[2]
  GI50: > 100 µM
  TGI: > 100 µM
[3]
  GI50: 84.8 µM
  TGI: > 100 µM
[4]
  GI50: 98 µM
  TGI: > 100 µM
[5]
  GI50: 50.9 µM
  TGI: > 100 µM
[6]
  GI50: 18.8 µM
  TGI: 36.1 µM
[7]
  GI50: 85.3 µM
  TGI: > 100 µM
[8]
  GI50: 14.2 µM
  TGI: > 60.9 µM
[9]
  GI50: > 100 µM
  TGI: > 100 µM
[10]
  GI50: 74.8 µM
  TGI: > 100 µM
[11]
  GI50: > 89.2 µM
  TGI: > 100 µM
[12]
  GI50: 44.9 µM
  TGI: > 100 µM
[13]
  GI50: > 100 µM
  TGI: > 100 µM
[14]
  GI50: > 74.8 µM
  TGI: > 100 µM
[15]
  GI50: 57.2 µM
  TGI: > 100 µM
[16]
  GI50: > 100 µM
  TGI: > 100 µM
[17]
  GI50: > 100 µM
  TGI: > 100 µM
[18]
  GI50: > 90 µM
  TGI: > 100 µM
[19]
  GI50: 67.7 µM
  TGI: > 100 µM
[20]
  GI50: 44.8 µM
  TGI: > 100 µM
[21]
  GI50: 42 µM
  TGI: > 100 µM
[22]
  GI50: > 100 µM
  TGI: > 100 µM
[23]
  GI50: > 100 µM
  TGI: > 100 µM
[24]
  GI50: > 100 µM
  TGI: > 100 µM
[25]
  GI50: > 86.4 µM
  TGI: > 100 µM
[26]
  GI50: 39.9 µM
  TGI: > 100 µM
[27]
  GI50: 20 µM
  TGI: 64.3 µM
[28]
  GI50: 68.8 µM
  TGI: > 100 µM
[29]
  GI50: 59.6 µM
  TGI: > 100 µM
[30]
  GI50: > 100 µM
  TGI: > 100 µM
[31]
  GI50: 73.1 µM
  TGI: > 100 µM
[32]
  GI50: > 73.2 µM
  TGI: > 100 µM
[33]
  GI50: 82 µM
  TGI: > 100 µM
[34]
  GI50: > 100 µM
  TGI: > 100 µM
[35]
  GI50: > 100 µM
  TGI: > 100 µM
[36]
  GI50: 71.8 µM
  TGI: > 100 µM
[37]
  GI50: 15.5 µM
  TGI: 40.7 µM
[38]
  GI50: 60.5 µM
  TGI: > 100 µM
[39]
  GI50: 15.2 µM
  TGI: 42.1 µM
[40]
  GI50: 5.87 µM
  TGI: > 80.8 µM
[41]
  GI50: > 76.2 µM
  TGI: > 100 µM
[42]
  GI50: > 58.9 µM
  TGI: > 100 µM
[43]
  GI50: 31.6 µM
  TGI: > 88.3 µM
[44]
  GI50: > 100 µM
  TGI: > 100 µM
[45]
  GI50: 57.7 µM
  TGI: > 100 µM
[46]
  GI50: 48.5 µM
  TGI: > 100 µM
[47]
  GI50: 29.7 µM
  TGI: > 83 µM
[48]
  GI50: 71.4 µM
  TGI: > 100 µM
[49]
  GI50: > 100 µM
  TGI: > 100 µM
[50]
  GI50: > 100 µM
  TGI: > 100 µM
[51]
  GI50: 51.9 µM
  TGI: > 100 µM
[52]
  GI50: 27.9 µM
  TGI: > 91.9 µM
[53]
  GI50: > 95.6 µM
  TGI: > 100 µM
[54]
  GI50: > 100 µM
  TGI: > 100 µM
[55]
  GI50: > 100 µM
  TGI: > 100 µM
[56]
  GI50: 41.6 µM
  TGI: 98.4 µM
[57]
  GI50: 47.9 µM
  TGI: > 100 µM
[58]
  GI50: 40.1 µM
  TGI: > 100 µM

## O=c1[nH]c(-c2ccc(C(F)(F)F)cc2)nc2c1CSCC2
[1]
  GI50: > 100 µM
  TGI: > 100 µM
[2]
  GI50: > 100 µM
  TGI: > 100 µM
[3]
  GI50: > 100 µM
  TGI: > 100 µM
[4]
  GI50: > 100 µM
  TGI: > 100 µM
[5]
  GI50: > 100 µM
  TGI: > 100 µM
[6]
  GI50: 68.7 µM
  TGI: > 100 µM
[7]
  GI50: 88.6 µM
  TGI: > 100 µM
[8]
  GI50: 13.5 µM
  TGI: > 100 µM
[9]
  GI50: > 100 µM
  TGI: > 100 µM
[10]
  GI50: > 100 µM
  TGI: > 100 µM
[12]
  GI50: > 100 µM
  TGI: > 100 µM
[13]
  GI50: > 100 µM
  TGI: > 100 µM
[14]
  GI50: > 100 µM
  TGI: > 100 µM
[15]
  GI50: > 100 µM
  TGI: > 100 µM
[16]
  GI50: > 100 µM
  TGI: > 100 µM
[17]
  GI50: > 100 µM
  TGI: > 100 µM
[18]
  GI50: > 100 µM
  TGI: > 100 µM
[19]
  GI50: > 100 µM
  TGI: > 100 µM
[20]
  GI50: 13.5 µM
  TGI: > 100 µM
[21]
  GI50: 79.5 µM
  TGI: > 100 µM
[22]
  GI50: > 100 µM
  TGI: > 100 µM
[23]
  GI50: 0.818 µM
  TGI: > 100 µM
[24]
  GI50: > 100 µM
  TGI: > 100 µM
[25]
  GI50: 98.9 µM
  TGI: > 100 µM
[26]
  GI50: > 100 µM
  TGI: > 100 µM
[27]
  GI50: > 100 µM
  TGI: > 100 µM
[28]
  GI50: > 100 µM
  TGI: > 100 µM
[29]
  GI50: 95.7 µM
  TGI: > 100 µM
[30]
  GI50: > 100 µM
  TGI: > 100 µM
[31]
  GI50: 24 µM
  TGI: > 100 µM
[32]
  GI50: > 100 µM
  TGI: > 100 µM
[33]
  GI50: > 100 µM
  TGI: > 100 µM
[34]
  GI50: > 100 µM
  TGI: > 100 µM
[35]
  GI50: 25.7 µM
  TGI: > 100 µM
[36]
  GI50: > 100 µM
  TGI: > 100 µM
[37]
  GI50: 7.03 µM
  TGI: 53 µM
[38]
  GI50: 52.5 µM
  TGI: > 100 µM
[39]
  GI50: > 100 µM
  TGI: > 100 µM
[40]
  GI50: 28.8 µM
  TGI: > 100 µM
[41]
  GI50: > 100 µM
  TGI: > 100 µM
[42]
  GI50: 25 µM
  TGI: > 100 µM
[43]
  GI50: > 100 µM
  TGI: > 100 µM
[44]
  GI50: > 100 µM
  TGI: > 100 µM
[45]
  GI50: 3.83 µM
  TGI: > 100 µM
[46]
  GI50: 78.3 µM
  TGI: > 100 µM
[47]
  GI50: 24.5 µM
  TGI: > 100 µM
[48]
  GI50: 14.7 µM
  TGI: > 100 µM
[49]
  GI50: > 100 µM
  TGI: > 100 µM
[50]
  GI50: > 100 µM
  TGI: > 100 µM
[51]
  GI50: > 100 µM
  TGI: > 100 µM
[52]
  GI50: 30.5 µM
  TGI: > 100 µM
[59]
  GI50: 72.9 µM
  TGI: > 100 µM
[54]
  GI50: > 100 µM
  TGI: > 100 µM
[55]
  GI50: > 100 µM
  TGI: > 100 µM
[56]
  GI50: 13.3 µM
  TGI: > 100 µM
[58]
  GI50: > 100 µM
  TGI: > 100 µM
